Laboratory results published in ChEMBL document CHEMBL1201862, “PubChem BioAssay data set” (2004).
Where “and” joins values, the source holds several entries; their conditions need not be identical. Equal entries are not always repeated.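 How tested: cells in 96-well plates exposed to compound for 48 hours at five concentrations. GI50 marks 50% less growth.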 Calls of active or inactive are those of the source. No stated cut-off is given here; in the data, active = GI50 up to about 1.1 µM and inactive = higher.

What was measured:
Experiment in all cases: NCI-60 cell line screen, 48 h
[1] = system: OVCAR-4
[2] = system: HOP-92
[3] = system: OVCAR-5
[4] = system: K562
[5] = system: M14
[6] = system: DU-145
[7] = system: NCI-H23
[8] = system: IGROV-1
[9] = system: RPMI-8226
[10] = system: SK-MEL-2
[11] = system: SF-295
[12] = system: SNB-19
[13] = system: CCRF-CEM
[14] = system: U-251
[15] = system: SK-OV-3
[16] = system: UACC-257
[17] = system: LOX IMVI
[18] = system: SR
[19] = system: SNB-75

| Structure (SMILES) | GI50 [1] | GI50 [2] | GI50 [3] | GI50 [4] | GI50 [5] | GI50 [6] | GI50 [7] | GI50 [8] | GI50 [9] | GI50 [10] | GI50 [11] | GI50 [12] | GI50 [13] | GI50 [14] | GI50 [15] | GI50 [16] | GI50 [17] | GI50 [18] | GI50 [19] |
| --- | --- | --- | --- | --- | --- | --- | --- | --- | --- | --- | --- | --- | --- | --- | --- | --- | --- | --- | --- |
| CO[C@@H](c1ccccc1)[C@H](O)[C@](O)(c1ccccc1)P(=O)(OC)OC | > 100 µM (inactive) | 91.6 µM (inactive) | > 100 µM (inactive) | > 100 µM (inactive) | > 100 µM (inactive) | > 100 µM (inactive) | > 100 µM (inactive) | > 100 µM (inactive) | > 100 µM (inactive) | > 100 µM (inactive) | > 100 µM (inactive) | > 100 µM (inactive) | > 100 µM (inactive) | > 100 µM (inactive) | > 100 µM (inactive) | > 100 µM (inactive) | > 100 µM (inactive) | > 100 µM (inactive) | > 100 µM (inactive) |
| CC1(c2ccc(Cl)cc2)c2ccccc2C(=O)N1CCCN1C(=O)c2ccccc2C1=O (configuration not stated) | 61.8 µM (inactive) | 73.6 µM (inactive) | – | 50.5 µM (inactive) | – | 40.3 µM (inactive) | 25.4 µM (inactive) | 9.33 µM (inactive) | 33.3 µM (inactive) | 20.3 µM (inactive) | 24.2 µM (inactive) | 18.3 µM (inactive) | 45.1 µM (inactive) | 52.8 µM (inactive) | 31.2 µM (inactive) | 51.8 µM (inactive) | 19.6 µM (inactive) | 34.6 µM (inactive) | 58.9 µM (inactive) |
| C=C1C(=O)O[C@H]2[C@H]3O[C@@H](C[C@@H]12)[C@](C)(O)CCCC(C)=CCC[C@H]3C | 16.1 µM (inactive) | 1.34 µM (inactive) | 14.6 µM (inactive) | 6.37 µM (inactive) | – | 13.1 µM (inactive) | 14.5 µM (inactive) | 1.67 µM (inactive) | 3.17 µM (inactive) | 15 µM (inactive) | 16.5 µM (inactive) | 16.9 µM (inactive) | 0.807 µM (active) | 14 µM (inactive) | 19 µM (inactive) | 10.3 µM (inactive) | 14.3 µM (inactive) | 28.1 µM (inactive) | 10.5 µM (inactive) |
| O=C(CCl)N1CCCCC1C1(c2cc3ccccc3[nH]2)OCCO1 (configuration not stated) | 1.73 µM (inactive) | 1 µM (active) | 4.17 µM (inactive) | 1.93 µM (inactive) | 3.99 µM (inactive) | 5.11 µM (inactive) | 2.21 µM (inactive) | 0.198 µM (active) | 2.12 µM (inactive) | 7.98 µM (inactive) | 3.77 µM (inactive) | 10.6 µM (inactive) | 0.281 µM (active) | 2.86 µM (inactive) | 5.78 µM (inactive) | 4.7 µM (inactive) | 0.0349 µM (active) | 0.454 µM (active) | 2.65 µM (inactive) |
| N=C(N)SCc1nc(-c2ccc(Cl)cc2)no1 | 14.6 µM (inactive) | 29.1 µM (inactive) | 10.3 µM (inactive) | 5.71 µM (inactive) | 16.8 µM (inactive) | 15.7 µM (inactive) | 34.4 µM (inactive) | 32.7 µM (inactive) | 5.05 µM (inactive) | 13.2 µM (inactive) | 17.9 µM (inactive) | 38.2 µM (inactive) | 3.84 µM (inactive) | 21.7 µM (inactive) | 26.9 µM (inactive) | 30.5 µM (inactive) | 14.7 µM (inactive) | 4.48 µM (inactive) | 23.1 µM (inactive) |
| CC(=O)OC1CC2C(=O)CC1(C)C2(C)C (configuration not stated) | > 100 µM (inactive) | > 100 µM (inactive) | > 100 µM (inactive) | > 100 µM (inactive) and > 80.4 µM (inactive) | > 100 µM (inactive) | > 100 µM (inactive) | > 100 µM (inactive) | – | > 100 µM (inactive) | > 100 µM (inactive) | > 100 µM (inactive) | > 100 µM (inactive) | > 100 µM (inactive) | > 100 µM (inactive) | > 100 µM (inactive) | > 100 µM (inactive) | > 100 µM (inactive) | > 100 µM (inactive) | 67.9 µM (inactive) and > 83.6 µM (inactive) |
| O=C1NC(=O)C(c2c[nH]c3ccccc23)=C1c1cnc[nH]1 | > 100 µM (inactive) | > 100 µM (inactive) | > 100 µM (inactive) | 5.61 µM (inactive) | > 100 µM (inactive) | > 100 µM (inactive) | – | > 100 µM (inactive) | 49 µM (inactive) | 43.4 µM (inactive) | > 100 µM (inactive) | > 100 µM (inactive) | 47.3 µM (inactive) | > 100 µM (inactive) | > 100 µM (inactive) | > 100 µM (inactive) | 59 µM (inactive) | 23.6 µM (inactive) | > 100 µM (inactive) |
| COc1ccccc1C[C@@H]1OC2(C=CC(=O)C=C2)O[C@H]1Cc1ccccc1OC | 8.38 µM (inactive) | 9.55 µM (inactive) | 8.43 µM (inactive) | 11.5 µM (inactive) | 7.5 µM (inactive) | 18.4 µM (inactive) | 8.75 µM (inactive) | 6.75 µM (inactive) | 1.71 µM (inactive) | 9.29 µM (inactive) | 11 µM (inactive) | 9.95 µM (inactive) | 3.33 µM (inactive) | 10.2 µM (inactive) | 11.4 µM (inactive) | 8.11 µM (inactive) | 6.14 µM (inactive) | 1.78 µM (inactive) | 9.04 µM (inactive) |
| C=CCN1C(N)=C(C#N)C(C#N)(C#N)C1CCC (configuration not stated) | > 100 µM (inactive) | 52.1 µM (inactive) | > 100 µM (inactive) | > 100 µM (inactive) | > 100 µM (inactive) | > 100 µM (inactive) | > 100 µM (inactive) | > 100 µM (inactive) | > 100 µM (inactive) | > 100 µM (inactive) | > 100 µM (inactive) | > 100 µM (inactive) | > 100 µM (inactive) | > 100 µM (inactive) | > 100 µM (inactive) | > 100 µM (inactive) | > 100 µM (inactive) | > 100 µM (inactive) | > 100 µM (inactive) |
| S=C1/C(=N/c2ccccc2)N(C2CCCCC2)/C(=N\C2CCCCC2)N1c1ccccc1 | > 100 µM (inactive) | > 100 µM (inactive) | > 100 µM (inactive) | > 100 µM (inactive) | – | > 100 µM (inactive) | > 100 µM (inactive) | 87.5 µM (inactive) | > 100 µM (inactive) | > 100 µM (inactive) | 36 µM (inactive) | 47.2 µM (inactive) | > 100 µM (inactive) | 32.2 µM (inactive) | > 100 µM (inactive) | > 100 µM (inactive) | > 100 µM (inactive) | > 100 µM (inactive) | > 100 µM (inactive) |
| O=C1C(=O)N(C23CC4CC(CC(C4)C2)C3)C(=S)N1c1ccccc1 | > 100 µM (inactive) | 30 µM (inactive) | > 100 µM (inactive) | > 100 µM (inactive) | – | > 100 µM (inactive) | 49.1 µM (inactive) | > 100 µM (inactive) | > 100 µM (inactive) | 70.8 µM (inactive) | 97.5 µM (inactive) | > 100 µM (inactive) | 29 µM (inactive) | > 100 µM (inactive) | > 100 µM (inactive) | 32.7 µM (inactive) | > 100 µM (inactive) | > 100 µM (inactive) | > 100 µM (inactive) |
| FC(F)(F)c1ccc2c(c1)nc(Cc1ccc(Cl)c(Cl)c1)n2CC1CCCN2CCCCC12 (configuration not stated) | 74.5 µM (inactive) | 22.9 µM (inactive) | 17.4 µM (inactive) | 32.5 µM (inactive) | 12.4 µM (inactive) | 50.6 µM (inactive) | – | 21.2 µM (inactive) | 57 µM (inactive) | 35.5 µM (inactive) | 22.9 µM (inactive) | 18.9 µM (inactive) | – | 23.1 µM (inactive) | 31.3 µM (inactive) | 18.5 µM (inactive) | 16.3 µM (inactive) | 23.2 µM (inactive) | 28.6 µM (inactive) |
| COc1ccc(Oc2ccc3cc4c(cc3c2O)OCO4)c2cc(C)oc12 | 22.4 µM (inactive) | 25.2 µM (inactive) | 59 µM (inactive) | 14.6 µM (inactive) | 26.6 µM (inactive) | 39.7 µM (inactive) | 26.4 µM (inactive) | 37.8 µM (inactive) | 14.9 µM (inactive) | 18.5 µM (inactive) | 33.5 µM (inactive) | 36.9 µM (inactive) | 21.7 µM (inactive) | – | 52.7 µM (inactive) | 20.8 µM (inactive) | 19.3 µM (inactive) | 19.3 µM (inactive) | 33.4 µM (inactive) |
| O=P1(N(CCCl)CCCl)Oc2ccc(Cl)cc2C(C(Cl)(Cl)Cl)c2cc(Cl)ccc2O1 (configuration not stated) | 20.7 µM (inactive) | 3.9 µM (inactive) | 32.8 µM (inactive) | 3.72 µM (inactive) | 18.8 µM (inactive) | 29.1 µM (inactive) | 12.8 µM (inactive) | – | 3.77 µM (inactive) | 18.5 µM (inactive) | 3.68 µM (inactive) | – | 5.37 µM (inactive) | 13.7 µM (inactive) | 22.5 µM (inactive) | 18 µM (inactive) | 15.2 µM (inactive) | 3.94 µM (inactive) | 10.9 µM (inactive) |
| O=c1oc2c(ccc3c(O)cccc32)c2c1CCCC2 | > 100 µM (inactive) | 16.6 µM (inactive) | > 100 µM (inactive) | > 100 µM (inactive) | > 100 µM (inactive) | > 100 µM (inactive) | 26.9 µM (inactive) | > 100 µM (inactive) | > 100 µM (inactive) | 3.52 µM (inactive) | 14.5 µM (inactive) | 27.7 µM (inactive) | > 100 µM (inactive) | 15 µM (inactive) | – | > 100 µM (inactive) | 16.7 µM (inactive) | 4.55 µM (inactive) | 4.85 µM (inactive) |
